Marks after values point to notes of the source that are not given here.
Experiments:
[1] = pH 2.7
[2] = test system: Plasmopara viticola; experiment: Plasmopara test (grapevines)/preventive; assay type: in vivo; details: preventive spray, 10 ppm of active ingredient, evaluated 6 days after inoculation
Method: Solvent: 24.5 parts by weight of acetone • 24.5 parts by weight of dimethylacetamide
Emulsifier: 1 part by weight of alkylaryl polyglycol ether
To produce a suitable preparation of active compound, 1 part by weight of active compound is mixed with the stated amounts of solvent and emulsifier, and the concentrate is diluted with water to the desired concentration.
To test for preventive activity, young plants are sprayed with the preparation of active compound at the stated rate of application. After the spray coating has dried on, the plants are inoculated with an aqueous spore suspension of Plasmopara viticola and then remain for 1 day in an incubation cabinet at approximately 20° C. and a relative atmospheric humidity of 100%. The plant is subsequently placed for 4 days in a greenhouse at approximately 21° C. and a relative atmospheric humidity of approximately 90%. The plants are then misted and placed for 1 day in an incubation cabinet.
The test is evaluated 6 days after the inoculation. 0% means an efficacy which corresponds to that of the untreated control, while an efficacy of 100% means that no disease is observed.

[3] = test system: Phytophthora infestans; assay type: in vivo; details: tomato plants, spray, 500 ppm, grading 5 days after contamination

Compound | LogP [1] | Eff. % [2] | Eff. % [3]
CC(OC(=O)Nc1cccc(CO/N=C(/c2ccccc2)c2noc(=O)n2C)n1)c1ccccc1 (stereo not drawn) [Example 68] | 4.23 [a] | 90% | 100%
CCn1c(/C(=N\OCc2cccc(NC(=O)OC(C)(C)C)n2)c2ccccc2)noc1=O [Example 152] | 4.26 [a] | 70% | 95%
COc1cccc(OC(C)C(=O)Nc2nc(CO/N=C(/c3ccccc3)c3noc(=O)n3C)cs2)c1 (stereo not drawn) [Example 50] | 3.71 [a] | 95% | 94%
Cn1c(/C(=N\OCc2cccc(NC(=O)c3ccccc3)n2)c2ccccc2)noc1=O [Example 54] | 3.51 [a] | 93% | 100%
CC(C)CC(=O)Nc1cccc(CO/N=C(/c2ccccc2)c2noc(=O)n2C)n1 [Example 340] | 3.44 [a] | 79% | 100%
CCCCCC(=O)Nc1cccc(CO/N=C(/c2cccc(F)c2)c2noc(=O)n2C)n1 [Example 376] | 3.99 [a] | 93% | 100%
CC1c2ccccc2COC1C(=O)Nc1cccc(CO/N=C(/c2ccccc2)c2noc(=O)n2C)n1 (stereo not drawn) [Example 291] | 4.35 [a] | 77% | 100%
Cc1ccc(C)c(C(=O)Nc2nc(CO/N=C(/c3ccccc3)c3noc(=O)n3C)cs2)c1 [Example 336] | 3.94 [a] | 91% | 99%
Cn1c(/C(=N\OCc2cccc(NC(=O)C3Cc4ccccc4CO3)n2)c2ccccc2)noc1=O (stereo not drawn) [Example 85] | 4.17 [a] | 73% | 99%
Cc1ccc(OC(C)C(=O)Nc2nc(CO/N=C(/c3ccccc3)c3noc(=O)n3C)cs2)cc1 (stereo not drawn) [Example 312] | 4.02 [a] | 95% | 94%
Cn1c(/C(=N\OCc2cccc(NC(=O)c3cccc(I)c3)n2)c2ccccc2)noc1=O [Example 281] | 4.31 [a] | 97% | 97%
CCCCC(C)C(=O)Nc1cccc(CON=C(c2ccccc2)c2noc(=O)n2C)n1 (stereo not drawn) [Example 244] | 4.2 [a] | 86% | 99%
Cn1c(/C(=N\OCc2csc(NC(=O)Cc3ccccc3)n2)c2ccccc2)noc1=O [Example 378] | 3.37 [a] | 95% | 100%
Cc1ccc(C(=O)Nc2cccc(CO/N=C(/c3ccccc3)c3noc(=O)n3C)n2)cc1C [Example 401] | 4.16 [a] | 90% | 99%
COc1cccc(OCC(=O)Nc2nc(CO/N=C(/c3ccccc3)c3noc(=O)n3C)cs2)c1 [Example 318] | 3.53 [a] | 93% | 99%
Cn1c(/C(=N\OCc2cccc(NC(=O)CCC(C)(C)C)n2)c2ccccc2)noc1=O [Example 59] | 4.15 [a] | 98% | 100%
Cn1c(/C(=N\OCc2cccc(NC(=O)CC3CCCC3)n2)c2ccccc2)noc1=O [Example 365] | 3.92 [a] | 98% | 100%
Cn1c(/C(=N\OCc2cccc(NC(=O)CC3CCCCC3)n2)c2ccccc2)noc1=O [Example 208] | 4.26 [a] | 91% | 100%
Cc1cccc(C(=O)Nc2cccc(CO/N=C(/c3ccccc3)c3noc(=O)n3C)n2)c1 [Example 344] | 3.87 [a] | 93% | 100%
Cc1cccc(OC(C)C(=O)Nc2nc(CO/N=C(/c3ccccc3)c3noc(=O)n3C)cs2)c1 (stereo not drawn) [Example 80] | 3.99 [a] | 98% | 98%
Cn1c(/C(=N\OCc2cccc(NC(=O)CCC3(C)CC3)n2)c2ccccc2)noc1=O [Example 166] | 3.87 [a] | 95% | 99%

Reference: patent US9090600B2, “Fungicidal 4-substituted-3-{phenyl[(heterocyclylmethoxy)imino]methyl}-1,2,4-oxadizol-5(4H)-one derivatives” (BAYER INTELLECTUAL PROPERTY GMBH, priority 2011, dated 2015)
